# From patent US20110250136A1, “FLUORINATED BENZOTHIAZOLE DERIVATIVES, PREPARATION METHOD THEREOF AND IMAGING AGENT FOR DIAGNOSING ALTZHEIMER'S DISEASE USING THE SAME” (SNU R&DB FOUNDATION, priority 2008, published 2011)
# “And” between values parts separate entries of the source, which are not always exact repeats. Identical values can stand only once.
# Tests used:
# Aβ1-40 fibrils [1] = target: T1, Aβ1-40 fibrils (Homo sapiens, UniProt P05067); test: Binding affinity to beta-amyloid fibrils, competition with [125I]TZDM; conditions: [125I]TZDM radioligand
# T1 construct: beta-amyloid plaque peptides (Aβ1-40 and Aβ1-42)
# T1 sequence (P05067 672-711 limits assumed): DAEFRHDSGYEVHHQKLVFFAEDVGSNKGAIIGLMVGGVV
# Protocol: (§1) A fibril solution, in which 1 mg of each of beta-amyloid plaque peptides (Aβ1-40 and Aβ1-42) to be used for analysis was dissolved in 1.155 ml of ethylenediaminetetraacetic acid disodium salt (Na2EDTA) solution, was introduced into 20 mM PBS buffer (pH 7.4), a sonication was performed for 30 minutes, and then the mixture was incubated with stirring for 3 days at 30° C. The thus-obtained solution was high speed centrifuged (28,000 g for 15 minutes) at 4° C., and the supernatant was collected. The precipitate was washed twice with 100 μl of a mixture solution of 1 mM ethylenediaminetetraacetic acid disodium salt and 10 mM PBS buffer. The precipitate was resuspended in 2.310 ml of 1 mM ethylenediaminetetraacetic acid disodium salt and 10 mM PBS buffer, and the suspended sold produced was divided into equal aliquots of 30 μl and kept at −80° C. […] A mixed solution with a total volume of 1000 μl was incubated at room temperature for 3 hours, and then a Whatman GF/B filter was used to separate the solution into unbound radioactive materials and bound radioactive materials. Then, each tube was washed three times with 3 μl of 10% ethanol. The radioactivity was measured using an automatic gamma counter.
# Aβ1-42 fibrils [2] = target: T2, Aβ1-42 fibrils (Homo sapiens, UniProt P05067); test: as above; conditions: [125I]TZDM radioligand
# T2 construct: beta-amyloid plaque peptides (Aβ1-40 and Aβ1-42)
# T2 sequence (P05067 672-713 limits assumed): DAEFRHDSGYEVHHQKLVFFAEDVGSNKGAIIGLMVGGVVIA
# Protocol: as §1
# Aβ1-42 fibrils [3] = target: T2, Aβ1-42 fibrils; conditions: radioactive ligand, known value, printed as second Aβ1-40; read-out: Kd for Aβ1-40 (second named); cited from earlier work
# Aβ1-40 fibrils [4] = target: T1, Aβ1-40 fibrils; conditions: radioactive ligand, known value, first Aβ1-40; cited from earlier work
# [5] = In vivo cerebral uptake and release degree in a normal mouse; parameters: species or system ICR mice; conditions: for % ID-kg/g: corrected for body weight; for % ID/g: tail vein injection, normal mouse; for release from normal mouse brain (in words): up to 60 min
# Protocol: 6 week-old ICR mice were used for experiments on cerebral uptake and release degree of three 6-[18F]fluorine-2-allylbenzothiazole derivatives (compounds in Examples 1 to 3) in a mouse over time. Each of the compounds in Examples 1 to 3 was dissolved in physiological saline solution containing 5% ethanol, and each of 200 μl (100 μCi) of the solutions was injected through the tail vein of the mouse. 2, 30, and 60 minutes were selected as in-vivo retention time periods, and 4 to 7 mice were used in each time period. After the mice were sacrificed by cervical dislocation in each time period, the brains were quickly removed, they were separated into three parts of cortex, cerebellum, and remnant on filter paper kept on ice, respectively, and blood was collected. The specimen thus-obtained was introduced into a glass tube, the weight was determined, and the radioactivity were measured using a gamma counter. Using the data obtained, the percent injected dose per gram of tissue (% ID/g) in each sample compared to radioactivity actually injected, and the value (% ID-kg/g) corrected for individual body weights of the mice used were calculated.
# [6] = Measurement of partition coefficient (1-octanol / PBS buffer, gamma counter); type: physicochemical; conditions: 1-octanol / 1 M PBS buffer, room temperature; read-out: Log P value
# Protocol: For this purpose, the distribution ratio of octanol to water buffer of the compound to be measured may be measured to determine the relative lipophilicity of each compound. […] The mixture was vortexed at room temperature for 5 minutes and then was centrifuged at 1000 rpm for 5 minutes. 4 ml was withdrawn from the octanol layer of the solution, introduced into a new tube, and another 4 ml of 1 M PBS buffer was introduced into the tube. The mixture was vortexed at room temperature for 5 minutes and then centrifuged at 1000 rpm for 5 minutes. 50 μl was withdrawn from the octanol layer and introduced into a test tube, and 500 μl was withdrawn from the 1 M PBS buffer and introduced into the test tube. 3 ml was withdrawn from the octanol layer and introduced into another test tube, and another 3 ml of 1 M PBS buffer was added into the test tube. The mixture was vortexed at room temperature for 5 minutes and then centrifuged at 1000 rpm for 5 minutes. 50 μl was withdrawn from the octanol layer and introduced into a test tube, and 500 μl was withdrawn from the 1 M PBS buffer and introduced into the test tube. 2 ml was withdrawn from the octanol layer and introduced into another test tube, and another 2 ml of the PBS buffer. The mixture was vortexed at room temperature for 5 minutes and then centrifuged at 1000 rpm for 5 minutes. […]
# [7] = Brain imaging (PET) of normal volunteer, brain region to cerebellar ratio; type: in vivo, human; conditions: 196 MBq i.v.; for brain region to cerebellar ratio, Cinerea / brain region to cerebellar ratio, Frontal cortex / brain region to cerebellar ratio, Occipital cortex / brain region to cerebellar ratio, posterior cingulate cortex: PET; for brain region to cerebellar ratio, Cerebell: PET (reference region)
# Protocol: Each of the compounds (196 MBq) in Examples 2 and 3 of the present invention was dissolved in 6 ml of physiological saline solution including 5% ethanol, the resulting solution was intravenously injected into a normal volunteer (78 kg), and Static Images of the brain from the injection to 2 hours were obtained through a Phillips Allegro PET scanner. The protocol of the brain imaging repeated emission and transmission as follows.
# [2 minute emission+transmission]×four times
# [5 minute emission+transmission]×four times
# [10 minute emission+transmission]×three times
# For attenuation correction, a Cs-137 radiation source prior to the administration was used to obtain a one-and-a half minute transmission scan per bed (18 cm). The transmission image and a 3D Row-Action Maximum-Likelihood (RAMLA) algorithm were used to reconstruct an attenuation corrected image. The 3D voxel size was 2.0×2.0×2.0 mm and the matrix size was 128×128×90 (FIGS. 2 and 3).
smiles,measurement,setting,value
"CN(C)c1ccc(-c2nc3ccc(F)cc3s2)cc1 [Example 6, 2-(4′-Dimethylaminophenyl)-6-fluorobenzothiazole]",melting point,,204.4 to 205.9 °C
same,Ki,Aβ1-40 fibrils [1],7.9 nM
same,Ki,Aβ1-42 fibrils [2],1.86 nM
CNc1ccc(-c2nc3ccccc3s2)cc1I [2-(3-[125I]iodo-4′-N-methylaminophenyl)benzothiazole],Kd,Aβ1-42 fibrils [3],0.44 ± 0.25 nM
same,Kd,Aβ1-40 fibrils [4],2.3 ± 0.33 nM
"CNc1ccc(-c2nc3ccc(F)cc3s2)cc1 [Example 5, 2-(4′-N-methylaminophenyl)-6-fluorobenzothiazole]",melting point,,153.5 to 154.5 °C
same,Ki,Aβ1-40 fibrils [1],13.3 nM
same,Ki,Aβ1-42 fibrils [2],7.55 nM
"CNc1ccc(-c2nc3ccc([18F])cc3s2)cc1 [Example 2, 2-(4′-N-Methylaminophenyl)-6-[^18F]fluorobenzothiazole]",% ID-kg/g,"[5]; Blood, 2 min",0.070 ± 0.007 % ID-kg/g
same,% ID/g,"[5]; Blood, 2 min",2.08 ± 0.19 % ID/g
same,% ID-kg/g,"[5]; Blood, 30 min",0.032 ± 0.007 % ID-kg/g
same,% ID/g,"[5]; Blood, 30 min",0.92 ± 0.15 % ID/g
same,% ID-kg/g,"[5]; Blood, 60 min",0.042 ± 0.006 % ID-kg/g
same,% ID/g,"[5]; Blood, 60 min",1.28 ± 0.08 % ID/g
same,% ID-kg/g,"[5]; Cerebellum, 2 min",0.210 ± 0.017 % ID-kg/g
same,% ID/g,"[5]; Cerebellum, 2 min",6.24 ± 0.35 % ID/g
same,% ID-kg/g,"[5]; Cerebellum, 30 min",0.048 ± 0.011 % ID-kg/g
same,% ID/g,"[5]; Cerebellum, 30 min",1.38 ± 0.23 % ID/g
same,% ID-kg/g,"[5]; Cerebellum, 60 min",0.032 ± 0.003 % ID-kg/g
same,% ID/g,"[5]; Cerebellum, 60 min",0.98 ± 0.12 % ID/g
same,% ID-kg/g,"[5]; Cortex, 2 min",0.222 ± 0.015 % ID-kg/g
same,% ID/g,"[5]; Cortex, 2 min",6.62±0.33 % ID/g
same,% ID-kg/g,"[5]; Cortex, 30 min",0.042 ± 0.010 % ID-kg/g
same,% ID/g,"[5]; Cortex, 30 min",1.20 ± 0.20 % ID/g
same,% ID-kg/g,"[5]; Cortex, 60 min",0.024 ± 0.002 % ID-kg/g
same,% ID/g,"[5]; Cortex, 60 min",0.73±0.09 % ID/g and 0.73 ± 0.10 % ID/g
same,% ID-kg/g,"[5]; Remnant (brain), 2 min",0.212 ± 0.017 % ID-kg/g
same,% ID/g,"[5]; Remnant (brain), 2 min",6.30 ± 0.46 % ID/g
same,% ID-kg/g,"[5]; Remnant (brain), 30 min",0.066 ± 0.014 % ID-kg/g
same,% ID/g,"[5]; Remnant (brain), 30 min",1.91 ± 0.30 % ID/g
same,% ID-kg/g,"[5]; Remnant (brain), 60 min",0.044 ± 0.003 % ID-kg/g
same,% ID/g,"[5]; Remnant (brain), 60 min",1.32 ± 0.15 % ID/g
same,release from normal mouse brain (in words),[5]; normal mouse brain,very quickly released
same,logP,[6],3.11
same,"brain region to cerebellar ratio, Cinerea",[7]; 15 min,0.45
same,"brain region to cerebellar ratio, Frontal cortex",[7]; 15 min,0.92
same,"brain region to cerebellar ratio, Occipital cortex",[7]; 15 min,1.05
same,"brain region to cerebellar ratio, posterior cingulate cortex",[7]; 15 min,0.89
same,"brain region to cerebellar ratio, Cerebell",[7]; 15 min,1.00
same,"brain region to cerebellar ratio, Cinerea",[7]; 90 min,0.83
same,"brain region to cerebellar ratio, Frontal cortex",[7]; 90 min,0.96
same,"brain region to cerebellar ratio, Occipital cortex",[7]; 90 min,0.95
same,"brain region to cerebellar ratio, posterior cingulate cortex",[7]; 90 min,0.87
same,"brain region to cerebellar ratio, Cerebell",[7]; 90 min,1.00
"CN(C)c1ccc(-c2nc3ccc([18F])cc3s2)cc1 [Example 3, 2-(4′-N-Dimethylaminophenyl)-6-[^18F]fluorobenzothiazole]",% ID-kg/g,"[5]; Blood, 2 min",0.040 ± 0.003 % ID-kg/g
same,% ID/g,"[5]; Blood, 2 min",1.55 ± 0.08 % ID/g
same,% ID-kg/g,"[5]; Blood, 30 min",0.026 ± 0.005 % ID-kg/g
same,% ID/g,"[5]; Blood, 30 min",1.04 ± 0.19 % ID/g
same,% ID-kg/g,"[5]; Blood, 60 min",0.021 ± 0.010 % ID-kg/g
same,% ID/g,"[5]; Blood, 60 min",1.02 ± 0.06 % ID/g
same,% ID-kg/g,"[5]; Cerebellum, 2 min",0.115 ± 0.005 % ID-kg/g
same,% ID/g,"[5]; Cerebellum, 2 min",4.45 ± 0.19 % ID/g
same,% ID-kg/g,"[5]; Cerebellum, 30 min",0.050 ± 0.007 % ID-kg/g
same,% ID/g,"[5]; Cerebellum, 30 min",2.03 ± 0.26 % ID/g
same,% ID-kg/g,"[5]; Cerebellum, 60 min",0.024 ± 0.012 % ID-kg/g
same,% ID/g,"[5]; Cerebellum, 60 min",1.16 ± 0.09 % ID/g
same,% ID-kg/g,"[5]; Cortex, 2 min",0.114 ± 0.004 % ID-kg/g
same,% ID/g,"[5]; Cortex, 2 min",4.39 ± 0.22 % ID/g
same,% ID-kg/g,"[5]; Cortex, 30 min",0.054 ± 0.006 % ID-kg/g
same,% ID/g,"[5]; Cortex, 30 min",2.17 ± 0.26 % ID/g
same,% ID-kg/g,"[5]; Cortex, 60 min",0.033 ± 0.017 % ID-kg/g
same,% ID/g,"[5]; Cortex, 60 min",1.61 ± 0.22 % ID/g
same,% ID-kg/g,"[5]; Remnant (brain), 2 min",0.110 ± 0.006 % ID-kg/g
same,% ID/g,"[5]; Remnant (brain), 2 min",4.26 ± 0.22 % ID/g
same,% ID-kg/g,"[5]; Remnant (brain), 30 min",0.069 ± 0.010 % ID-kg/g
same,% ID/g,"[5]; Remnant (brain), 30 min",2.80 ± 0.39 % ID/g
same,% ID-kg/g,"[5]; Remnant (brain), 60 min",0.041 ± 0.020 % ID-kg/g
same,% ID/g,"[5]; Remnant (brain), 60 min",2.01 ± 0.15 % ID/g
same,initial cerebral uptake (in words),"[5]; normal mouse brain, 2 min",relatively lower initial cerebral uptake
same,release from normal mouse brain (in words),[5]; normal mouse brain,slower 60-minute removal rate
same,logP,[6],4.33
same,"brain region to cerebellar ratio, Cinerea",[7]; 15 min,0.40
same,"brain region to cerebellar ratio, Frontal cortex",[7]; 15 min,0.88
same,"brain region to cerebellar ratio, Occipital cortex",[7]; 15 min,1.17
same,"brain region to cerebellar ratio, posterior cingulate cortex",[7]; 15 min,0.91
same,"brain region to cerebellar ratio, Cerebell",[7]; 15 min,1.00
same,"brain region to cerebellar ratio, Cinerea",[7]; 90 min,0.83
same,"brain region to cerebellar ratio, Frontal cortex",[7]; 90 min,1.02
same,"brain region to cerebellar ratio, Occipital cortex",[7]; 90 min,1.12
same,"brain region to cerebellar ratio, posterior cingulate cortex",[7]; 90 min,1.00
same,"brain region to cerebellar ratio, Cerebell",[7]; 90 min,1.00
